Laboratory results from patent publication US4690935A, “Inhibition of tumor growth and metastasis with calcium channel blocker compounds” (Wayne State University, priority 1983, dated 1987).

System: Platelet
Assay: Tumor cell (Lewis Lung Carcinoma, 3LL) induced platelet aggregation (TCIPA)
Format: cell-based, human
Details: 3LL cells
Description: Blood (45 ml) was drawn from the […] vein of healthy, fasted, aspirin free (at least two weeks) human volunteers into a plastic syringe containing 5 ml of 4.8% dextrose with 50 U/ml heparin buffered by 25 mM HEPES, pH 7.5. An 18 gauge needle was used to prevent hemolysis. The heparinized blood was gently mixed by inverting the syringe five times and then the blood was transfused into two 40 ml plastic centrifuge tubes and centrifuged for 10 min at 163×g. The resulting platelet rich plasma (PRP; the supernatant fraction) was decanted using an adjustable SMI pipette set at 6 ml. Platelet poor plasma (PPP) was prepared by centrifugation of PRP for 10 min at 1086×g. Platelet poor plasma was used to standardize the platelet concentration in PRP to 3×10^8 /ml. Platelet concentrations were determined using a Coulter Model ZBI cell counter.
Platelet aggregation was measured photometrically using a Sienco Model DP-247E dual channel aggregometer and recorded on a Sienco Model B-5000 dual channel recorder. Aliquots of PRP (250 microliters at 3×10^8 platelets/ml) were transferred into aggregometry cuvettes and stirred at a constant speed of 800 RPM at 37° C. Platelet aggregation studies were designed and run as individually controlled samples. BAY e 9736 was dissolved in either PEG-400 or […] (DMSO).
BAY e 9736 in PEG-400 alone was aliquoted into the cuvettes prior to the addition of the PRP. Immediately after the addition of the PRP, the cuvettes were placed into the aggregometer. After two minutes (to allow for the stabilization of the platelet preparation and mixing of the BAY e 9736), ADP or tumor cells were added in 20 microliter aliquots to induce platelet aggregation.
The calcium channel blocker nifedipine was tested for its ability to inhibit tumor cell induced platelet aggregation (TCIPA). Nifedipine (20 mg) was dissolved in one milliliter of abolute ethanol:PEG-400 (1:1), and then diluted 1:10 with the same ethanol:PEG-400 mixture. […]

For COC(=O)C1=C(C)NC(C)=C(C(=O)OC)C1c1ccccc1[N+](=O)[O-] [nifedipine], the “effect on tumor cell induced platelet aggregation (in words)” value was “can inhibit TCIPA in a dose dependent fashion”, the inhibition at 15 µg/mL (Homo sapiens, 0.015 mg/ml, read-out: INHIBITION OF CONTROL TCIPA) was 22% and the inhibition at 150 µg/mL (Homo sapiens, 0.15 mg/ml, read-out: INHIBITION OF CONTROL TCIPA) was 42%.
